In US10865203B2, “Ligands selective to alpha 6 subunit-containing GABAA receptors and their methods of use” (UWM Research Foundation, Inc., priority 2015, dated 2020):
Converted amounts (≈) assume the structure as drawn.

Columns and labels:
[1] = Microsomal stability assay, human liver microsomes; type: in vitro ADME; conditions: for % left after 1 hr. (HLM) / half-life at 10 μM / Half-life (min) (HLM): 10 μM test compound, 0.5 mg/mL protein, 37° C.; for stability in Human liver microsomes: Table 2; for half-life at 10 μM: human, liver microsomes, pH 7.4, read-out: Half-life (min) (HLM)
Outline: (§1)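 Test compound at 10 μM was preincubated 5 min at 37 °C in phosphate buffer pH 7.4 with NADPH regenerating system, then started with human or mouse liver microsomes at 0.5 mg/mL protein. Samples were taken at 0–60 min and quenched in cold acetonitrile with internal standard. Slope k came from ln peak-area ratio versus time, three repeats in duplicate.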

[2] = Microsomal stability assay, mouse liver microsomes; type: in vitro ADME; conditions: for stability in Mouse liver microsomes: Table 2
Outline: as §1

[3] = Solubility of compounds in DI water; type: physicochemical; conditions: thermodynamic from solid; 2 mg in 2 mL DI water, sonicated at 60° C. for 2 hours, cooled to room temperature, filtered
Protocol: The solubility of the compounds was examined by sonicating 2 mg of each respective compound in 2 mL of DI water at 60° C. for 2 hours. Solutions were cooled to room temperature and then filtered using a syringe filter. The resultant solutions were injected into a mass spectrometer using a SIM method, calibrated to the respective retention times and mass units of each compound. Calibration curves using standard solutions (5 data points) of each compound dissolved in methanol were used to calculate the unknown aqueous concentrations of each compound.

HEPG2 cell line = test: Cytotoxicity study, CellTiter-Glo cell viability; type: cell-based, Human; conditions: HEPG2, 48 hours incubation
Protocol: Reagents and Instrumentation: Human liver hepatocellular carcinoma (HEPG2) cell line was purchased (ATCC) and cultured in 75 cm2 flasks (CellStar). Cells were grown in DMEM/High Glucose (Hyclone, #SH3024301) media to which non-essential amino acids (Hyclone, #SH30238.01), 10 mM HEPES (Hyclone, #SH302237.01), 5×106 units of penicillin and streptomycin (Hyclone, #SV30010), and 10% of heat inactivated fetal bovine serum (Gibco, #10082147) were added. Cells were harvested using 0.05% Trypsin (Hyclone, #SH3023601), which disrupts the cell monolayer and proteolytically cleaves the bonds between the cells and flask. The cell viability assay was evaluated using CellTiter-Glo™ Luminescent Cell Viability Assay Kit (Promega, Madison, Wis.) which contains luciferase and all its substrate except ATP. The controls for the cytotoxicity assay used were (E)-10-(bromotriphenylphosphoranyl)decyl 4-(4-(tert-butyl)phenyl)-4-oxobut-2-enoate (400 μM in DMSO, positive control) and DMSO (negative control). Cell culture was performed in a Baker Company Class II Biological Safety Cabinet. All luminescence readings were performed on a Tecan Infinite M1000 plate reader. Small volume transfers were performed on the Tecan Freedom EVO liquid handling system with a 100 nL pin tool transfer (V&P Scientific). Serial dilutions were done in 96-well polypropylene plates (Corning, #3365) and assays were conducted in 384-well white optical bottom plates.
Luminescence-Based VDR-Mediated Transcription Assay Protocol: After 48 hours of incubation at 37 °C with 5% CO2, the cells were harvested with 4 mL of 0.05% Trypsin, added to 10 mL of the assay buffer, DMEM/High Modified buffer without phenol red, and spun down for 3 minutes at 1000 rpm. The media was removed and cells were resuspended in the DMEM assay media. To each well, 40 μL of cells were added to yield a final concentration of 15,000 cells per well. The plates were then spun down for 2 minutes at 1000 rpm. After 2 hours, plated cells were treated with 100 nL×4 of small molecules and controls which were added using the pin tool. After 48 hours of incubation at 37 °C with 5% CO2, 20 μL of Cell Titer-Glo™ Luminescence Assay Kit (cytotoxicity assay) were added and luminescence was read. Controls were measured within each plate to determine the z′ factor (Equation 1) and to enable data normalization. Three independent experiments were performed in quadruplicate and data was analyzed using nonlinear regression with variable slope (GraphPrism, Equation 2). The luminescence intensity of control (untreated) cells was taken as 100% viability, and the relative cell viability compared to control was calculated. Data are presented as the means±SEM of a series of three experiments.

[4] = 10 μM test compound, 0.5 mg/mL protein, 37° C.

Compound | % left after 1 hr. (HLM) [1] | stability in Human liver microsomes [1] | half-life at 10 μM [1] | % left after 1 hr. (MLM) [2, 4] | stability in Mouse liver microsomes [2] | half-life at 10 μM ([2]; mouse, liver microsomes, pH 7.4, 10 μM test compound, 0.5 mg/mL protein, 37° C., read-out: Half-life (min) (MLM)) | solubility at 2 h [3] | Half-life (min) (HLM) [1] | Half-life (min) (MLM) [2, 4] | toxicity at 400 μM (HEPG2 cell line) | higher stability compared to non-Deuterated (DK-II-13-1) ([2]; mouse liver microsomes)
COc1ccc(-n2nc3c4ccc(OC)cc4[nH]cc-3c2=O)cc1 [Compound 6, 7-Methoxy-2-(4-methoxyphenyl)-2,5-dihydro-3H-pyrazolo[4,3-c]quinolin-3-one] | 86.1 ± 1.0% | 86% | 212 ± 25 min | 80.35 ± 0.14% | 80% | 194 ± 11.4 min | – | – | – | – | –
[2H]C([2H])([2H])Oc1ccc(-n2nc3c4ccc(OC)cc4[nH]cc-3c2=O)cc1 [DK-I-56-1, 7-Methoxy-2-(4-methoxy-d3-phenyl)-2,5-dihydro-3H-pyrazolo[4,3-c]quinolin-3-one] | 91.69 ± 0.09% | – | – | 92.8 ± 0.09% | – | – | 11.4 µg/mL (≈ 35.1 µM) | 520 ± 51 min | 628.8 ± 73 min | non-toxic | –
[2H]C([2H])([2H])Oc1ccc2c3nn(-c4ccc(OC)nc4)c(=O)c-3c[nH]c2c1 [DK-I-86-1, 7-Methoxy-d3-2-(6-methoxypyridin-3-yl)-2,5-dihydro-3H-pyrazolo[4,3-c]quinolin-3-one] | 92.3 ± 0.13% | – | – | 91.3 ± 0.12% | – | – | 211 µg/mL (≈ 649 µM) | 752.30 ± 261 min | 550.6 ± 78 min | non-toxic | ~20%
COc1cccc(-n2nc3c4cc(Cl)ccc4[nH]cc-3c2=O)c1 [LAU 159, 8-Chloro-2-(3-methoxyphenyl)-2,5-dihydro-3H-pyrazolo[4,3-c]quinolin-3-one] | 81.44 ± 0.16% | ~80% | 207 ± 15 min | 59.83 ± 0.23% | ~60% | – | – | – | 89.07 ± 5.22 min | – | –
COc1ccc(-n2nc3c4ccc(Br)cc4[nH]cc-3c2=O)cc1 [LAU 463, 7-Bromo-2-(4-methoxyphenyl)-2,5-dihydro-3H-pyrazolo[4,3-c]quinolin-3-one] | 66.86 ± 0.13% | – | 104 ± 4 min | 69 ± 0.16% | – | – | – | – | 113.17 ± 5.15 min | – | –
